Reference: patent US20170112861A1, “DRUG DELIVERY ENHANCER COMPRISING SUBSTANCE FOR ACTIVATING LYSOPHOSPHOLIPID RECEPTORS” (Osaka University, priority 2014, published 2017)

Columns and labels:
[1] = system: VE-cadherin in tumor blood vessels of LLC cell tumors; assay: VE-cadherin expression in vascular endothelial cells of tumors after LPA administration; assay type: in vivo, mice; details: LPA 3 mg/kg i.p., 24 hours after administration
Procedure: LLC cells were subcutaneously inoculated into C57BL/6 NCrSlc mice aged 8 weeks (females, SLC, Inc.) in the same manner as in Example 1. An LPA administration solution was prepared in the same manner as in Example 1. Mice on day 9 post-inoculation of LLC cells (individuals with a tumor volume of 60 to 80 mm^3) were subjected to the experiment. The mice were divided into two groups: control group and LPA group (n=3). LPA was intraperitoneally administered to the mice of the LPA group at a dose of 3 mg/kg in 100 μL PBS. The tumors of the control group were harvested just after grouping, and the tumors of the LPA group were harvested at 24 hours after LPA administration. The tumor tissue specimens were immunostained in the same manner as in Example 1 except that the primary antibody and the secondary antibody were changed. The primary antibody was Purified […] Anti-mouse VE-cadherin (BD pharmingen), and the anti-mouse VE-cadherin antibody was diluted to 200-fold in blocking solution. The secondary antibody was Alexa Fluor 488 Goat Anti-rat IgG (Life technologies), and the antibody was diluted to 400-fold in blocking solution. The prepared specimens were observed and photographed under a confocal laser microscope (Leica). Z-stack images were acquired using a confocal laser microscope and analyzed for the expression level (fluorescence intensity) of VE-cadherin.

[2] = system: LLC cells; assay: Combined administration of LPA and 5-FU, tumor growth in LLC cell tumor-bearing mice; assay type: in vivo
Procedure: LLC cells were subcutaneously inoculated into C57BL/6 NCrSlc mice aged 8 weeks in the same manner as in Example 1. An LPA administration solution was prepared in the same manner as in Example 1. The anticancer drug used was 5-FU (Kyowa Hakko Kirin Co., Ltd.). The 5-FU was prepared as a solution in physiological saline (Otsuka Pharmaceutical Co., Ltd.). On day 7 post-inoculation of LLC cells, mice with a tumor volume of 30 to 50 mm^3 were selected and subjected to the test. The mice were divided into four groups: control group, 5-FU group, LPA group and 5-FU/LPA group (n=3). LPA (3 mg/kg in 100 μL PBS) or 5-FU (100 mg/kg in 100 μL PBS) or PBS (100 μL) was administered intraperitoneally. To 5-FU/LPA group, both LPA and 5-FU were administered intraperitoneally. LPA and PBS were administered once daily for consecutive seven days. 5-FU was administered twice in total, once a week for two weeks (on days 7 and 14 post-inoculation). The tumor size was measured over time after start of administration. The tumor volume was calculated by the formula: volume=length×width×height×0.5. Mice at 2 weeks after start of administration were photographed with a digital camera under anesthesia with pentobarbital. The tumors were harvested and photographed with a digital camera.

[3] = system: LLC cell tumors; assay: Doxorubicin delivery from tumor blood vessels to tumor tissues after LPA administration; assay type: in vivo; details: LLC tumor-bearing mice, LPA 3 mg/kg i.p., doxorubicin 1.5 mg/kg i.v. 24 hours later, tumors harvested after 20 minutes
Procedure: LLC cells were subcutaneously inoculated into C57BL/6 NCrSlc mice aged 8 weeks (females, SLC, Inc.) in the same manner as in Example 1. An LPA administration solution was prepared in the same manner as in Example 1. On day 11 post-inoculation of LLC cells, mice with a tumor volume of 100 to 120 mm^3 were selected. The mice were divided into two groups: control group and LPA group (n=3). LPA (3 mg/kg in 100 μL PBS) or PBS (100 μL) was administered intraperitoneally. At 24 hours after LPA or PBS administration, doxorubicin (doxorubicin hydrochloride, Nippon Kayaku Co., Ltd.) was administered to the tail vein of the mice at a dose of 1.5 mg/kg under anesthesia with pentobarbital. The doxorubicin was prepared as a solution by dissolving and diluting the doxorubicin hydrochloride in physiological saline (Otsuka Pharmaceutical Co., Ltd.) to a concentration of 1.5 mg/kg and homogenizing the solution with an ultrasonic cleaner for 1 minute before administration. Doxorubicin is an autofluorescent anticancer drug that can be detected at an excitation wavelength of 480 nm and a measurement wavelength of 575 nm. At 20 minutes after administration of doxorubicin, the tumors were harvested from the mice, and the tumor specimens were prepared in the same manner as in Example 1 except that the thickness of the sections was 20 μm. […]

[4] = system: newly formed blood vessels with increased permeability; assay: Hindlimb ischemia model, edema (hindlimb circumference); assay type: in vivo, mice; details: LPA 3 mg/kg i.p. once daily for three days, 24 hours after final administration, vs control
Source text: A hindlimb ischemia model is used as a pathological model of Buerger's disease and chronic arteriosclerosis obliterans. In the production of such a model, a blood vessel in the hindlimb of a mouse is dissected to induce ischemia in the region supplied by the blood vessel. The surgical dissection also causes inflammation. The ischemia and inflammation induce angiogenesis. The newly formed blood vessels have increased permeability, which induces edema in the muscles of the hindlimb. An experiment was performed to determine whether LPA inhibits such increased permeability of newly formed blood vessels induced by inflammation or ischemia.
C57BL/6 NCrSlc mice aged 6 weeks (females, SLC, Inc.) were used. An incision was made in the inguinal skin of the right hindlimb under anesthesia with pentobarbital (Kyoritsu Seiyaku Corporation). The femoral vein was ligated at the proximal end, and the saphenous artery and vein were ligated at the distal end. The arteries and veins were excised along with their side branches. The skin incision was closed with a sterilized surgical suture (Natsume Seisakusho). The animal was placed in a 37° C. incubator until the animal recovered from anesthesia. […] At 24 hours after the final administration, the hindlimb circumference was measured.

Substance: lysophosphatidic acid [LPA]
- expression level (fluorescence intensity) of VE-cadherin from Z-stack images [1]: a strong fluorescence intensity on the cell membrane
- localization of VE-cadherin in tumor vascular endothelial cells [1]: VE-cadherin localized on the cell-cell junctions
- tumor growth (tumor volume) ([2]; LLC tumors, LPA 3 mg/kg i.p. once daily for seven days, 5-FU 100 mg/kg i.p. on days 7 and 14): some inhibitory effects on tumor growth as compared with the control
- appearance of tumors (blood flow) ([2]; LPA alone 3 mg/kg i.p. once daily for seven days): the tumors appeared reddish, indicating an increase in the blood flow
- delivery of doxorubicin from blood vessels to tumor [3]: delivery of doxorubicin from the blood vessels to tumors in the deep lobe was observed
- hindlimb circumference (edema) [4]: significantly reduced
